The test system of series [1] is HEK293. The experiment in a line: cells. The series is classed as functional, cell-based. As to conditions: Homo sapiens.
For series [2], the target named is T1, Nuclear receptor subfamily 0 group B member 1 (Homo sapiens, UniProt P51843).
T1 sequence (P51843 whole entry): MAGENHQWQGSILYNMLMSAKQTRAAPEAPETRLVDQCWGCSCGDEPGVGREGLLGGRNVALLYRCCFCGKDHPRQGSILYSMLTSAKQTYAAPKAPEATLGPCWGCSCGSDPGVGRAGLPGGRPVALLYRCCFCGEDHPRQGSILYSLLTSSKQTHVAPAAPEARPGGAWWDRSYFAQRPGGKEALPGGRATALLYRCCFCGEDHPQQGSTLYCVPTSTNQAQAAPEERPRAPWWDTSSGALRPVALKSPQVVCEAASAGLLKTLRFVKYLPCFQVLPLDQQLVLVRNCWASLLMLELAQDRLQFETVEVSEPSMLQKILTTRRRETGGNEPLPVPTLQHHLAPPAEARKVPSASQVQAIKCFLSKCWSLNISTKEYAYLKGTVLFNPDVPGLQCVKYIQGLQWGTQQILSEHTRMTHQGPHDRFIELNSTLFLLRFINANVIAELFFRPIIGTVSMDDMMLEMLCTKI
The experiment in a line: Luminescence-based cell-based high throughput dose response assay for inhibitors of the orphan nuclear receptor subfamily 0, group B, member 1 (DAX1; NR0B1). [Related pubchem assays (depositor defined):AID504766, AID504790]. The series is classed as functional.

The target in series [3] is Cytochrome P450 2D6 (Homo sapiens, UniProt P10635).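 Note: CYP2D6 member of a cytochrome P450 panel assay.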
The target in series [4] is T2, Cytochrome P450 3A4 (Homo sapiens, UniProt P08684). As to conditions: Potency.
The target in series [5] is Voltage-gated inwardly rectifying potassium channel KCNH2 (Homo sapiens, UniProt Q12809). As to conditions: Potency.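 Note: confirmatory quantitative high-throughput screen measuring inhibition of hERG channel activity.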
The target in series [6] is T3, Cytochrome P450 1A2 (Homo sapiens, UniProt P05177).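 Note: PubChem cytochrome P450 panel assay, CYP1A2 panel member.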
T3 sequence (P05177 whole entry): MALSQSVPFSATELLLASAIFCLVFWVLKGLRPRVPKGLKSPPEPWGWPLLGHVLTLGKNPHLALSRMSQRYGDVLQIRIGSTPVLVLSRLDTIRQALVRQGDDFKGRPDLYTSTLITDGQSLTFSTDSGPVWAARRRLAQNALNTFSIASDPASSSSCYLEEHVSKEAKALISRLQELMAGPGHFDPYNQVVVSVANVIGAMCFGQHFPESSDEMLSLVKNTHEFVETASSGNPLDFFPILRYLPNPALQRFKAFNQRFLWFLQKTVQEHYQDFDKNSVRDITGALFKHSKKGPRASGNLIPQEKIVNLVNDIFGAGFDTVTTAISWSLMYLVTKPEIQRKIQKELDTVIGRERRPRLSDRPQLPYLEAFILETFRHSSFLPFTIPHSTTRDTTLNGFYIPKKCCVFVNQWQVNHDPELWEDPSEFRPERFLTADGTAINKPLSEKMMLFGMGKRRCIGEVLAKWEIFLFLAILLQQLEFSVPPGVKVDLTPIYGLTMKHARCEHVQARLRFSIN

Series [7] deals with T2, Cytochrome P450 3A4.
The target in series [8] is T4, Calpain-2 catalytic subunit (Sus scrofa, UniProt P43367).
T4 sequence (P43367 whole entry): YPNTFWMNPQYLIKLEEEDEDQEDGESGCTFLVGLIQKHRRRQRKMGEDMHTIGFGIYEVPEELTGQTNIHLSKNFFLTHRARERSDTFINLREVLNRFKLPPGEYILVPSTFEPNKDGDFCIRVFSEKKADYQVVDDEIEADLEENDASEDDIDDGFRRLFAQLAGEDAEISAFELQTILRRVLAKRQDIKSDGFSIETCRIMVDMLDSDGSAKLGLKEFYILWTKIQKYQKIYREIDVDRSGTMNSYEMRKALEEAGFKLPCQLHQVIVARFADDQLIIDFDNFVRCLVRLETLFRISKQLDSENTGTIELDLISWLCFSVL
The experiment in a line: m-calpain protease blockers, concentration series – biochemical, fluorogenic peptide substrate, dose response (AID 1420). The class given is functional.

Series [9] deals with T5, High affinity choline transporter 1 (Homo sapiens, UniProt Q9GZV3).
T5 sequence (Q9GZV3 whole entry): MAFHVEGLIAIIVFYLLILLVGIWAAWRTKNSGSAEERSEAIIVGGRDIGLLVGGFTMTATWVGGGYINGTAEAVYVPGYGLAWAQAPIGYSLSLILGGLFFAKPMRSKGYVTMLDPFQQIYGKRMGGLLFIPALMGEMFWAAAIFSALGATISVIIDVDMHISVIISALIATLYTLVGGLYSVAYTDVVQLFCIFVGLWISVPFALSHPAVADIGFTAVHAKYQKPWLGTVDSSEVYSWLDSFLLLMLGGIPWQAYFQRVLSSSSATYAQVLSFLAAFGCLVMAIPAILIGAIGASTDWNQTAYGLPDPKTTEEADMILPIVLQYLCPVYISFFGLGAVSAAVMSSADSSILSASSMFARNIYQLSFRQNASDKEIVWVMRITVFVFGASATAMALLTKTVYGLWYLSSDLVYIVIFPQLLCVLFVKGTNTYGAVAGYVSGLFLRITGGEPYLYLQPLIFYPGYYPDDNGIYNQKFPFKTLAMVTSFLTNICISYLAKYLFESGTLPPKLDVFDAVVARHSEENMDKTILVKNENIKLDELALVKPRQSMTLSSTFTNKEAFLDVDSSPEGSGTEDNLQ
The experiment in a line: human choline transporter blockers, potency – cell-based, 5-point CRC, membrane potential dye, dose response (AID 504840). The series is classed as functional.

Series [10] addresses T6, Polyadenylate-binding protein 1 (Homo sapiens, UniProt P11940). In words: MLLE binding blockers, Cy5 peptide tracer – biochemical, fluorescence polarization, Cy5-PAM2 peptide, secondary, miRNA deadenylation inhibitor project, dose response (AID 602260). The series is classed as functional. As to conditions: read-out: IC50_Mean. (In general: Fluorescence polarisation rises when a labelled molecule tumbles more slowly, as on binding a larger partner.)

The target of series [11] is T6, Polyadenylate-binding protein 1. The experiment in a line: MLLE domain peptide-binding blockers, IC50 – biochemical, fluorescence polarization, FITC-PAM2 peptide, dose response (AID 602259). As to conditions: read-out: IC50_Mean. The class given is functional.
Series [12] deals with Disintegrin and metalloproteinase domain-containing protein 17 (Homo sapiens, UniProt P78536). The experiment in a line: exosite inhibitors of ADAM17, dose response, biochemical (AID 743260).
In series [13] the target is Glucose-6-phosphate 1-dehydrogenase (Homo sapiens, UniProt P11413). In words: inhibition of Homo sapiens G6PD, dose series – biochemical, fluorescence, selectivity assay for P. falciparum G6PD inhibitor project, dose response (AID 504792). The class given is functional.

The source made the active and inactive calls. A value given as a limit tells only on which side of the number the result lay.

Sequence of Cytochrome P450 2D6 (P10635 whole entry): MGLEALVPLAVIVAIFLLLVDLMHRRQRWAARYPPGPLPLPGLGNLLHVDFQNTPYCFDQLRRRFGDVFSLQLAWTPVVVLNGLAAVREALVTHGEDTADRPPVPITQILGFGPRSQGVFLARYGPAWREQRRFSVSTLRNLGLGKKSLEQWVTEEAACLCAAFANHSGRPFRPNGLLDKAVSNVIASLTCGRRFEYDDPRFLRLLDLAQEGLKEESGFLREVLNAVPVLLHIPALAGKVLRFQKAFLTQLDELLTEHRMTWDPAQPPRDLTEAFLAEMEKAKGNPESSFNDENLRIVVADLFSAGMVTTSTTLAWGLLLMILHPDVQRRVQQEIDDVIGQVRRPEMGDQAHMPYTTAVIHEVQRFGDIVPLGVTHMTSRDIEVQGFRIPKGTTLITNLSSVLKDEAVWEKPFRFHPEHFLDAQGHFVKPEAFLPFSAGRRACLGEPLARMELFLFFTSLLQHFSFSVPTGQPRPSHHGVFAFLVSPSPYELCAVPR
T2 sequence (P08684 whole entry): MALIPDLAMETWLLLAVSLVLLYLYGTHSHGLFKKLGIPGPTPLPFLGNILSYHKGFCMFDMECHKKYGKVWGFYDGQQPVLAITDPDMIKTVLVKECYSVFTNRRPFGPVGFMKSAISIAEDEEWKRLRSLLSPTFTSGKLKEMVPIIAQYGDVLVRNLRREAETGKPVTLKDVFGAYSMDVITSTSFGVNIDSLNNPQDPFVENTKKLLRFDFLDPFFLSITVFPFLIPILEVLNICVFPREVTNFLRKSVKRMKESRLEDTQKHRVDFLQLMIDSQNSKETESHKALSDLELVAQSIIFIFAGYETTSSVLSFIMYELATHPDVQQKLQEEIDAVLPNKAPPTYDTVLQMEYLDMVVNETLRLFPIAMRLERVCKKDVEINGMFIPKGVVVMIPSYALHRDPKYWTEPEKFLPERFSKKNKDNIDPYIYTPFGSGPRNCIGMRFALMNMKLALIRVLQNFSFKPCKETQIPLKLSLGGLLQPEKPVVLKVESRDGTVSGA
Sequence of Glucose-6-phosphate 1-dehydrogenase (P11413 whole entry): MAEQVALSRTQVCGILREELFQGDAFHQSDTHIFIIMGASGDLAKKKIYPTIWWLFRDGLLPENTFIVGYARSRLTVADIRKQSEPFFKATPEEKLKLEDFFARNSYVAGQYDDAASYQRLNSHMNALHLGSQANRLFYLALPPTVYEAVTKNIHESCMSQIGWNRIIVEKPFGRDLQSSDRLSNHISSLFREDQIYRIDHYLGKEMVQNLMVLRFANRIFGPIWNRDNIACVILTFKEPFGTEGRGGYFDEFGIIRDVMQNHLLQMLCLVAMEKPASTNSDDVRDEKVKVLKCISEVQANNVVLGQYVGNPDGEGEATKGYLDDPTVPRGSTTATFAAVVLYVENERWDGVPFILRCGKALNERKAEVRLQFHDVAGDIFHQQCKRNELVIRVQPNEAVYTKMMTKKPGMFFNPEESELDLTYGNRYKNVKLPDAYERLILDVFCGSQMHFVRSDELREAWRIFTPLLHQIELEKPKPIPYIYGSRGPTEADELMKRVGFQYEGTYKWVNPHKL
T6 sequence (P11940 whole entry): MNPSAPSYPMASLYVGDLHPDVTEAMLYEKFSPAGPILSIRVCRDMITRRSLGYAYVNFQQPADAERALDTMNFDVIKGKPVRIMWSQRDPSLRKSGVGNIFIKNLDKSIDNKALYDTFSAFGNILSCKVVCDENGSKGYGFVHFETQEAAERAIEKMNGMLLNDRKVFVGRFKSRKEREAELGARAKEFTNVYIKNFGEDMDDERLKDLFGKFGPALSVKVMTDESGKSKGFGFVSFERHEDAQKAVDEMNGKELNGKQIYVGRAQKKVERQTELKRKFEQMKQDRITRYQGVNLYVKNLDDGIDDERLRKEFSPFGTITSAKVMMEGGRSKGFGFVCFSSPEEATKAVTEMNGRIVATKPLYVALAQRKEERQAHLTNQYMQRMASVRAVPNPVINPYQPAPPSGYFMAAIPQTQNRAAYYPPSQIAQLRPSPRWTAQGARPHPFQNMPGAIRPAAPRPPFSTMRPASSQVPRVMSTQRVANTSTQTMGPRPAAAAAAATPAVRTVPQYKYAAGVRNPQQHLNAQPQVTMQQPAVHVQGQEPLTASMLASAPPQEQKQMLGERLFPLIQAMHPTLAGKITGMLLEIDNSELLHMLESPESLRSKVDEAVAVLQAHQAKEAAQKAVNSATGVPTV
Sequence of Voltage-gated inwardly rectifying potassium channel KCNH2 (Q12809 whole entry): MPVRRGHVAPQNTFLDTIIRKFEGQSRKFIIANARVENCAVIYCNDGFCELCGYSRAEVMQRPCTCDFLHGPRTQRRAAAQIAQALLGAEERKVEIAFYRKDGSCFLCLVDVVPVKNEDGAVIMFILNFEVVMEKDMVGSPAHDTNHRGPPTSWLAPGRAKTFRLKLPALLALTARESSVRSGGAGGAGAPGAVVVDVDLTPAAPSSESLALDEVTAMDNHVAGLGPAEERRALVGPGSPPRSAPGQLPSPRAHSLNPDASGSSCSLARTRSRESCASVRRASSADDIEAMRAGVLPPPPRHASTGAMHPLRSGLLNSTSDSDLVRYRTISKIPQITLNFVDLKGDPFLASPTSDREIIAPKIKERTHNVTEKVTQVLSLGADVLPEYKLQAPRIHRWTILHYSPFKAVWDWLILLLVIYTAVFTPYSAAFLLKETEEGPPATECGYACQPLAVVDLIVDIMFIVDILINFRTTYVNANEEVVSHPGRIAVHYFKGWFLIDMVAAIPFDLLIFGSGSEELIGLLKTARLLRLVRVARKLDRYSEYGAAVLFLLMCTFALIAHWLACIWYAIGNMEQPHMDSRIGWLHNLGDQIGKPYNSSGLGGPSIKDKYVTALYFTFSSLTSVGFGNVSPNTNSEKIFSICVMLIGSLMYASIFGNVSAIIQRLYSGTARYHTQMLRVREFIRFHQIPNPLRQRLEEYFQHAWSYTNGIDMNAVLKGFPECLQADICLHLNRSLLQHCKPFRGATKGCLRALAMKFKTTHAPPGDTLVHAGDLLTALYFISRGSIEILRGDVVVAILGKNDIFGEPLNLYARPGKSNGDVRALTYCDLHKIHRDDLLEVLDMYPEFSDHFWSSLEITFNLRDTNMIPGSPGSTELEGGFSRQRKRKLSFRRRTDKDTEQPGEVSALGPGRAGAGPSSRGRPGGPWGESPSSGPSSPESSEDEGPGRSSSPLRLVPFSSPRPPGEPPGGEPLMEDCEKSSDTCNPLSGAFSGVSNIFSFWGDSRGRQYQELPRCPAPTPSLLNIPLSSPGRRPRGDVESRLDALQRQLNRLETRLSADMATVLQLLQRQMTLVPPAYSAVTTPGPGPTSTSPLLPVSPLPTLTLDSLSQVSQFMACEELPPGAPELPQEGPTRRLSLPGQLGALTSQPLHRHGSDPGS
Sequence of Disintegrin and metalloproteinase domain-containing protein 17 (P78536 whole entry, the tested form may be a part): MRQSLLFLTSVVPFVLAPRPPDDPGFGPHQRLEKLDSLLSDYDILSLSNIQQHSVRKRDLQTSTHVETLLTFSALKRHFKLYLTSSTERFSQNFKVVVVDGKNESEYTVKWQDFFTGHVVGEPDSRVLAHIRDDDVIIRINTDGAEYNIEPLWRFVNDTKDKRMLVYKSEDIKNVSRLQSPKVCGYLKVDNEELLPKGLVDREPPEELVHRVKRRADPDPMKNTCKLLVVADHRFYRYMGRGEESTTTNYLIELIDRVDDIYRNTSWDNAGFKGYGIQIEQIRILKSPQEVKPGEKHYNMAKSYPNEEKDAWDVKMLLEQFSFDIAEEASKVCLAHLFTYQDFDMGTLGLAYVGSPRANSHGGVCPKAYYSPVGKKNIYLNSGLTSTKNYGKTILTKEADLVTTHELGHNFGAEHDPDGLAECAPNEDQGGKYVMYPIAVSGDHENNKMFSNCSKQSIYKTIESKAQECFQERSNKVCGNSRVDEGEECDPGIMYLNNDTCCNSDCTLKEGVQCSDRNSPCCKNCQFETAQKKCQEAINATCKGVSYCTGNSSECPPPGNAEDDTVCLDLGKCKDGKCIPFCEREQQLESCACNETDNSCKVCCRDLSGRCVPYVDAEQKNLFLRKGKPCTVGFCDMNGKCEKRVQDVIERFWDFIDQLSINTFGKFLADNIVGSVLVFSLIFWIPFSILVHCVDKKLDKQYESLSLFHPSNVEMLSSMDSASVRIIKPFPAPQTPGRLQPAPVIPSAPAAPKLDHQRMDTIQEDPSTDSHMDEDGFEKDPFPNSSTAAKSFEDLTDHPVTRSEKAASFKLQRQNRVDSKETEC

With `O=C(/C=C/c1ccc2c(c1)OCCO2)c1ccc(O)cc1`, the IC50 in series [1] was > 2.5 µM (active); in series [2] it was > 67.6 µM (inactive). What is called AC50 is the midpoint of the concentration-response curve, whichever way the signal moves. Take `CCc1c(C)[nH]c2c1C(=O)[C@H](CN1CCOCC1)CC2.Cl` [MOLINDONE HYDROCHLORIDE]: the AC50 result in series [3] is “inactive”. `Nc1ccccc1C(=O)OCCc1ccccc1`: the AC50 in [4] was 12.6 µM (inconclusive); in series [5], 39.8 µM (inconclusive). For `O=C(Oc1ccccc1)N1CCC2(CC1)CCN(c1cccc(-c3ccccc3)c1)CC2`, the AC50 in [6] is 12.6 µM (inconclusive); in [7], “inconclusive”. Turning to `S=c1[nH]nc(-c2sccc2OCc2ccc(Cl)cc2Cl)[nH]1`, the IC50 in series [8] is 10.1 µM (not active); in series [9], 11.5 µM (active); in [10], > 66 µM (inactive); in series [11] it was > 66 µM (inactive); in [12], > 69.5 µM (inactive). With `COc1cccc(CN2C(=O)N(C(C)C)C(N(O)C(=O)NC(C)C)C2(C)C)c1OC` (configuration not stated), the AC50 entry in [3] is “inconclusive”. For the molecule `COc1ccc(CN(C)S(=O)(=O)c2nnc(NC(=O)c3ccc(C)cc3)s2)cc1OC`, the IC50 in series [13] was 46 µM (inactive). `COCCCNC(=O)c1ccc(CN2CCc3ccccc3C2)cc1`: the IC50 in series [1] and in series [2] was > 67.5 µM (inactive) throughout.

With `N#Cc1ccc(Oc2cccc3cccnc23)c([N+](=O)[O-])c1`, in series [13], the IC50 is > 80 µM (inactive).

The record behind these values is ChEMBL document CHEMBL1201862, “PubChem BioAssay data set” (2004).
